From patent US9551711B2, “Compositions and methods for detecting nitration of PKG-1α and methods of use thereof” (Augusta University Research Institute, Inc., priority 2013, dated 2017)
Changes are numbered by the printed parent chain.

Experiments:
PKG-1α [1] = target: T1, PKG-1α (Homo sapiens, UniProt Q13976, Y247F); assay: PKG activity in transfected HEK-293T cells; assay type: cell-based; set-up: made in house; host or cells: HEK-293T; details: HEK-293T expressing Y247F-PKG-1α; SIN-1 500 μM, 30 min
T1 sequence (Q13976 2-671 Y247F): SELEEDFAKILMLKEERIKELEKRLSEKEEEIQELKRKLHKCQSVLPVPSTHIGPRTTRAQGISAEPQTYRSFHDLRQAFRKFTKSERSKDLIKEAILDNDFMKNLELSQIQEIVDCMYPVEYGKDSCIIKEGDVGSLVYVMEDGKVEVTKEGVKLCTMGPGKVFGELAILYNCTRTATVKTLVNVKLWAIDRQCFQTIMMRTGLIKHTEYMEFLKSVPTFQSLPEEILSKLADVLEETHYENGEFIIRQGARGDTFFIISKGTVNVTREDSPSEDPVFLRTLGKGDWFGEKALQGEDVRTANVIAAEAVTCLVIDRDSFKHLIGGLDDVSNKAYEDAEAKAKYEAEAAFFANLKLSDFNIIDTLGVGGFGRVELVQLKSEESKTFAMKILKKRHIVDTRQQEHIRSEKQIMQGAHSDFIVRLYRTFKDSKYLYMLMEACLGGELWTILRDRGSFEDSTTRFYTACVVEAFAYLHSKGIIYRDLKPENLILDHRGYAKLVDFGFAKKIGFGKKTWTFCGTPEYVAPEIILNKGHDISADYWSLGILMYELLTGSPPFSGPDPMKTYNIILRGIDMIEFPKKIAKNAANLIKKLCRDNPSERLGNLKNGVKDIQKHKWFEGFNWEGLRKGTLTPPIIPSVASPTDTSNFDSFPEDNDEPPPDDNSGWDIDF
Procedure: To determine the role of tyrosine 247 and tyrosine 425 in mediating the nitration dependent inhibition of PKG-1α kinase activity, Y247F- and Y425F-PKG-1α mutants were generated and expressed in HEK-293T cells. HEK-293T cells were transiently transfected with expression plasmids containing WT-, Y247F-, or Y425F-PKG-1α for 48 h. […] Protein extracts were immunoprecipitated using an antibody raised against PKG-1α and the level of nitrated PKG-1α determined by probing the membranes with an antiserum raised against 3-NT. The blots were then stripped and re-probed for PKG-1α to normalize for the efficiency of the immunoprecipitation.
Total PKG activity was determined using a non-radioactive immunoassay in cell lysates, according to the manufacturer's directions. […]
(§1) After incubation for 30 min at 30° C. to allow the phosphorylation of the bound substrate, an HRP conjugated anti-phosphothreonine specific antibody was added to convert a chromogenic substrate to a colorimetric substrate that was subsequently read spectrophotometrically at 450 nm. The change in absorbance reflected the relative activity of PKG in the sample. […] The kinetic constants were determined using nonlinear regression (curve fit) analysis (GraphPad Prism Software Inc.).

PKG-1α [2] = target: T2, PKG-1α (Homo sapiens, UniProt Q13976); assay: PKG activity in transfected PASMC; assay type: cell-based, lamb; set-up: an expression plasmid containing a full length WT-PKG-1α cDNA; expressed in transfected cells; host or cells: primary pulmonary artery smooth muscle cells (PASMC) from 4-week old lambs; details: PASMC transfected with WT-PKG-1α; SIN-1 500 μM, 48 h
T2 sequence (Q13976 2-671): T1 sequence (Q13976 2-671 Y247F) with F246Y
Procedure: Therefore, the effect of these events were investigated in PASMC transiently transfected with expression plasmids containing WT- and Y247F-PKG-1α. The effect of nitration on pulmonary arterial smooth muscle cell (PASMC) growth and metabolism was determined. PASMC were transiently transfected with expression plasmids containing WT-PKG-1α, Y247F-PKG-1α or pDEST40 (as a control) for 20 h. Cells were then exposed or not to SIN-1 (500 μM, 48 h) and the effect on PKG protein levels (FIG. 2A) and activity determined (FIG. 2B).
(§2) Total PKG activity was determined using a non-radioactive immunoassay in cell lysates, according to the manufacturer's directions. Briefly, protein samples were diluted in kinase reaction buffer containing Mg^2+ and ATP (125 μM) in the presence or absence of 8-Br cGMP (10 μM) and incubated in a 96 well plate pre-coated with a PKG substrate containing threonine residues phosphorylated by PKG.
as §1

PKG-1α [3] = target: T2, PKG-1α; assay: PKG catalytic activity, Michaelis-Menten kinetics for cGMP; assay type: biochemical; set-up: an expression plasmid containing a full length WT-PKG-1α cDNA; made in house; host or cells: HEK-293T; the results paragraph b304 says PASMC
Procedure: as §2
as §1, with “sample. The results were reported as pmols of phosphate incorporated into the GST-G substrate fusion protein by active PKG in the sample in the presence or absence of cGMP (10 μM) per minute at 30° C. per μg of protein (pmol/min/μg).” for “sample.”
To determine the Michaelis-Menten constant (Km) for cGMP, the kinase assay was performed, as mentioned above; however, the cGMP concentration was titrated from 0-10 μM, while the ATP concentration remained constant at 125 μM.

- cGMP dependent PKG activity (PKG-1α [1]): unaffected
- cGMP dependent increase in PKG activity (PKG-1α [2]): attenuated
- Vmax of the reaction (PKG-1α [3]; WT PKG-1α after SIN-1 challenge, ATP 125 μM, cGMP 0-10 μM): 0.28 pmol/min/µg
- Km (PKG-1α [3]; WT-PKG-1α upon SIN-1 treatment, read-out: Michaelis-Menten constant (Km) for cGMP): 8.91 nM
Substance: 3-morpholinosydnonimine N-ethylcarbamide [SIN-1]
